Test results taken from article PMC9501356, “New Sulfamethoxazole Derivatives as Selective Carbonic Anhydrase IX and XII Inhibitors: Design, Synthesis, Cytotoxic Activity and Molecular Modeling” (Pharmaceuticals, 2022).
Values after ≈ are worked out from the molar mass of the structure shown. Like-named read-outs stand apart in the source and are kept apart here.

Legend:
[1] = target: T1, recombinant Human Carbonic Anhydrase I (Homo sapiens, UniProt P00915); assay: CA1 inhibitory assay (4-nitrophenyl acetate esterase); type: biochemical; settings: average ± SEM, three independent experiments; read-out: Carbonic Anhydrase IC50 (uM) hCA I
T1 construct: purchased R and D system (MN, USA)
Method: The hCA I was assayed following the manufacturer’s instruction and reported method (Supplementary Material Section S2) (Table 2). […]
(§1) Carbonic Anhydrase (CA) catalyzes the reversible reaction of CO2 +
H2O = HCO3- + H+. Carbonic Anhydrase I (CAI) was measured following the manufacturer’s instruction. […]
(§2) 400 nm[40] and the activity was calculated using the following equation: […]
S2.2.4. CA1 inhibitory assay
(§3) Carbonic Anhydrase (CA) cataly zes the reversible reaction of CO2 + H2O = HCO3- + H+. Carbonic Anhydrase I (CAI) was measured following the […]
Tris, 75 mM NaCl, pH 7.5). The substrate (4-Nitroph enyl acetate, 4NPA, 100 mM stock in acetone) was diluted in 2 mM in assay buffer. The reaction was started by adding 50 µL of 2 mM substrate with 50 µL of 100 ng/µL rhCAI in […]
(§4) 96 well plate. […]
(§5) 400 nm[41] and the activity was calculated using the following equation: […]

MCF7 cells = assay: MTT cytotoxicity assay on MCF7 (hypoxia and normoxia); type: cell-based; settings: Homo sapiens
Method: (§6) Suppling, specification and incubation of MCF7 and MCF10a cell lines were carried out according to the method mentioned in detail in Supplementary Material Section S2.
(§7) MTT assay is a method used for in vitro cytotoxicity of different compounds. The method details are illustrated in Supplementary Material Section S2. […]
(§8) Carbonic Anhydrase (CA) catalyzes the reversible reaction of CO2 + […]
(§9) H2O = HCO3- + H+. […]
(§10) 400 nm[40] and the activity was calculated using the following equation: […] = HCO3- + H+. […]
as §4, §5
(§11) S2.2.6. Cell culture Protocol
(§12) MCF7 and MCF10a cell lines were obtained from American Type
(§13) Culture Collection, the cultured cells were grown using DMEM
(§14) (Invitrogen/Life Technologies) in 10% fetal bovine serum (FBS), 10 μg/ml of insulin (Sigma), and 1% penicillin-streptomycin antibiotics. Other chemicals and reag ents were from ob tained f rom S igma or In vitrogen. Cells d en sity was 1.2 – 1.8 × 10^3 cells/well in a volume of 100 µl complete growth medium + 100 μl of the tested compound/well in a 96-well plate for 24 hours performing […]
(§15) assay. After treatment of cells with the serial concentrations of the tested compounds, incubation for 48 h at 37 °C is carried out.
(§16) S2.2.7. MTT – Cytotoxicity assay protocol
MTT assay is a method used for in vitro cytotoxicity of different compounds. […]

[2] = MTT cytotoxicity assay on MCF10a; type: cell-based; settings: human, MCF10a normal breast cells, MCF10a normal breast cell line
Method: as §6, §7, §8, §9, §10, §4, §5, §11, §12, §13, §14, §15, §16
(§17) MTT assay is a method used for in vitro cytotoxicity of different compounds. MTT vial was reconstituted in 3 ml growth media and diluted
(§18) MTT in an amount equal to 10% of the culture medium volume. After 4hrs incubation of the reagent with the treated MCF7 and MCF10a cells, culture media was removed from incubator and dissolve the resulting formazan crystals by adding an amount of MTT solubilizing solution equal volume with the original culture medium.

hCA II = target: T2, hCA II (Homo sapiens, UniProt P00918); assay: CAII inhibitory assay (p-nitrophenyl acetate); type: biochemical; settings: average ± SEM, three independent experiments; read-out: Carbonic Anhydrase IC50 (uM) hCA II
T2 construct: purchased BPS bioscience (CA, USA)
Method: CAII was assayed following the manufacturer’s instruction and reported method (Supplementary Material Section S2) (Table 2). […]
as §1, §9, §2
= HCO3- + H+. […]
as §4, §5
S2.2.5. CAII inhibitory assay
CAII was assayed following the manufacturer’s instruction. A amount
of 1,400 pmol/min/µg assay mixture containing 100 mM NaCl, 15 mM Tris-

hCA IX = target: T3, hCA IX (Homo sapiens, UniProt Q16790); assay: hCA IX inhibitory assay; type: biochemical; settings: average ± SEM, three independent experiments; read-out: Carbonic Anhydrase (IC50, nM) CA-IX
T3 construct: purchased BPS bioscience (CA, USA)
Method: The hCA IX was assayed following the manufacturer’s instruction and reported method. (Table 1, Figure 3A,B) (Supplementary Material Section S2). […]
mixture was incubated for 30 min at room temperature and the absorbance was measured at 405nm.
(§19) S2.2.3. hCAXII inhibitory assay
as §1
H2O = HCO3- + H+. Carbonic Anhydrase I (CAI) was measured following the manufacturer’s instruction. In brief, recombinant Human
Carbonic Anhydrase XII (rh CAXII) was diluted to […] in assay buffer (12.5 mM Tris, 75 mM NaCl, pH 7.5). The substrate (4-Nitrophenyl acetate, 4NPA, 100 mM stock in acetone) was diluted in 2 mM in assay buffer. The reaction was started by adding 50 µL of 2 mM substrate with 50 µL of 20 ng/µL rhCAXII in 96 well plate. Substrate blank containing 50 µL of assay buffer and 50 µL of substrate was included. The kinetics for 5 min of the reaction mixtures were measured at wavelength of 400 nm[40] and the activity was calculated using the following equation: […]
as §3, §5
CAII was assayed following the manufacturer’s instruction. […] Incubate for 30 min at RT and the resulted absorbance was measured at 405 nm. […]

[3] = target: T4, recombinant Human Carbonic Anhydrase XII (Homo sapiens, UniProt O43570); assay: hCA XII inhibitory assay (4-nitrophenyl acetate esterase); type: biochemical; settings: average ± SEM, three independent experiments; read-out: Carbonic Anhydrase (IC50, nM) CA-XII
T4 construct: purchased R and D system (MN, USA)
Method: mixture was incubated for 30 min at room temperature and the absorbance […]
as §19, §1
H2O = HCO3- + H+. Carbonic Anhydrase I (CAI) was measured following the manufacturer’s instruction. In brief, recombinant Human […]
mM Tris, 75 mM NaCl, pH 7.5). The substrate (4-Nitrophenyl acetate, 4NPA, 100 mM stock in acetone) was diluted in 2 mM in assay buffer. The reaction was started by adding 50 µL of 2 mM substrate with 50 µL of 20 ng/µL rhCAXII in 96 well plate. Substrate blank containing 50 µL of assay buffer and 50 µL of substrate was included. The kinetics for 5 min of the reaction mixtures were measured at wavelength of 400 nm[40] and the activity was calculated using the following equation:
Specific Activity (pmol/min/µg) = Adjusted Vmax (OD/ mi n) x Conver sion Factor (pmol /OD) amount of enzyme (µg) S2.2.4. CA1 inhibitory assay
as §3
Tris, 75 mM NaCl, pH 7.5). The substrate (4-Nitroph enyl acetate, 4NPA, 100 mM stock in acetone) was diluted in 2 mM in assay buffer. The reaction was started by adding 50 µL of 2 mM substrate with 50 µL of 100 ng/µL rhCAI in 96 well plate. […]
as §5

MCF10a cells = assay: MTT cytotoxicity assay on MCF10a; type: cell-based; settings: MCF10a normal breast cell line
Method: as §6, §7, §8, §9, §10, §4, §5, §11, §12, §13, §14, §15, §16, §17, §18

T1 sequence (P00915 whole entry): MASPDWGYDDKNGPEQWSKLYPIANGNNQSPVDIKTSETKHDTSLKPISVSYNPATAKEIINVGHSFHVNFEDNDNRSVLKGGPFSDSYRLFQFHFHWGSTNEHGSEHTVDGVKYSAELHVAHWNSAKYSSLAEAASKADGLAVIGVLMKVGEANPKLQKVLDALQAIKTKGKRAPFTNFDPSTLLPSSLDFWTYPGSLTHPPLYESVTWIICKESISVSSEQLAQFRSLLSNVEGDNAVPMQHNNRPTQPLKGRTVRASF
T4 sequence (O43570 25-354): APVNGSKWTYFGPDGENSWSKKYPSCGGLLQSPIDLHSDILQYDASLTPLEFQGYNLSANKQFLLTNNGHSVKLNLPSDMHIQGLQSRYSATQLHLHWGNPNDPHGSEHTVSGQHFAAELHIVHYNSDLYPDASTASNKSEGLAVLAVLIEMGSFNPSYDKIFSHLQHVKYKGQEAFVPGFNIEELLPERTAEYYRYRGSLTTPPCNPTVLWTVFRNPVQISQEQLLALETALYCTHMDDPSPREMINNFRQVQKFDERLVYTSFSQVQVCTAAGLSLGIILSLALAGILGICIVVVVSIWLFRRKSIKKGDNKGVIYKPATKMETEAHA

| SMILES | IC50 [1] [µM] | IC50 (hCA II) [µM] | IC50 (hCA IX) [nM] | IC50 [3] [nM] | IC50 (MCF7 cells; MCF7, MCF7, hypoxia, read-out: Cytotoxicity (IC50 µg/mL) MCF7 Hypoxia) [µg/mL] | IC50 (MCF7 cells; MCF7, MCF7, normoxia, read-out: Cytotoxicity (IC50 µg/mL) MCF7 Normoxia) [µg/mL] | IC50 at 48 h [2] [µg/mL] | Cytotoxicity (IC50 µg/mL) MCF10a (MCF10a cells) [µg/mL] |
| --- | --- | --- | --- | --- | --- | --- | --- | --- |
| Cc1ccc(C(=O)Nc2ccc(S(=O)(=O)Nc3cc(C)on3)cc2)cc1 [S8, 4-Methyl-N-(4-(N-(5-methylisoxazol-3-yl)sulfamoyl)phenyl)benzamide] | 1.02 ± 0.049 | 1.85 ± 0.12 |  |  | 3.64 ± 0.2 (≈ 9.8 µM) | 7.68 ± 0.41 (≈ 20.7 µM) | 31.6 ± 1.71 (≈ 85.2 µM) |  |
| C=CCN(c1cc(C)on1)S(=O)(=O)c1ccc(N)cc1 [S2, N-Allyl-4-amino-N-(5-methylisoxazol-3-yl)benzenesulfonamide] | 0.177 ± 0.008 | 0.102 ± 0.006 |  |  |  |  |  |  |
| Cc1ccc(/C=C2\SC(Nc3ccc(S(=O)(=O)Nc4cc(C)on4)cc3)=NC2=O)cc1 [S19, (Z)-4-((5-(4-Methylbenzylidene)-4-oxo-4,5-dihydrothiazol-2-yl)amino)-N-(5-methylisoxazol-3-yl)benzenesulfonamide] |  |  |  | 0.9 |  |  |  |  |

Continued, in another order:

| IC50 [1] [µM] | IC50 (hCA II) [µM] | IC50 (hCA IX) [nM] | IC50 [3] [nM] | SMILES | IC50 (MCF7 cells; MCF7, MCF7, hypoxia, read-out: Cytotoxicity (IC50 µg/mL) MCF7 Hypoxia) [µg/mL] | IC50 (MCF7 cells; MCF7, MCF7, normoxia, read-out: Cytotoxicity (IC50 µg/mL) MCF7 Normoxia) [µg/mL] | IC50 at 48 h [2] [µg/mL] | Cytotoxicity (IC50 µg/mL) MCF10a (MCF10a cells) [µg/mL] |
| --- | --- | --- | --- | --- | --- | --- | --- | --- |
| 0.08 ± 0.003 | 0.199 ± 0.011 | 0.042 |  | CCCN(c1cc(C)on1)S(=O)(=O)c1ccc(N)cc1 [S3, 4-Amino-N-(5-methylisoxazol-3-yl)-N-propylbenzenesulfonamide] |  |  |  |  |
| 0.121 ± 0.006 | 0.543 ± 0.03 |  |  | Cc1cc(NS(=O)(=O)c2ccc(NC(=O)c3ccc(Cl)cc3)cc2)no1 [S9, 4-Chloro-N-(4-(N-(5-methylisoxazol-3-yl)sulfamoyl)phenyl)benzamide] |  |  | 34.7 ± 1.87 (≈ 88.6 µM) | 46.72 ± 2.52 |
